Results taken from patent US8815872B2, “Macrocyclics pyrimidines as aurora kinase inhibitors” (Merck Patent GmbH, priority 2008, dated 2014).

Key:
Assay in all cases: Other kinases, single-concentration inhibition (Table 3)
Format in all cases: biochemical
Axl(h) = target: T1, Axl(h) (Homo sapiens, UniProt P30530)
T1 construct: purchased Caliper Life Sciences
T1 sequence (P30530 26-894): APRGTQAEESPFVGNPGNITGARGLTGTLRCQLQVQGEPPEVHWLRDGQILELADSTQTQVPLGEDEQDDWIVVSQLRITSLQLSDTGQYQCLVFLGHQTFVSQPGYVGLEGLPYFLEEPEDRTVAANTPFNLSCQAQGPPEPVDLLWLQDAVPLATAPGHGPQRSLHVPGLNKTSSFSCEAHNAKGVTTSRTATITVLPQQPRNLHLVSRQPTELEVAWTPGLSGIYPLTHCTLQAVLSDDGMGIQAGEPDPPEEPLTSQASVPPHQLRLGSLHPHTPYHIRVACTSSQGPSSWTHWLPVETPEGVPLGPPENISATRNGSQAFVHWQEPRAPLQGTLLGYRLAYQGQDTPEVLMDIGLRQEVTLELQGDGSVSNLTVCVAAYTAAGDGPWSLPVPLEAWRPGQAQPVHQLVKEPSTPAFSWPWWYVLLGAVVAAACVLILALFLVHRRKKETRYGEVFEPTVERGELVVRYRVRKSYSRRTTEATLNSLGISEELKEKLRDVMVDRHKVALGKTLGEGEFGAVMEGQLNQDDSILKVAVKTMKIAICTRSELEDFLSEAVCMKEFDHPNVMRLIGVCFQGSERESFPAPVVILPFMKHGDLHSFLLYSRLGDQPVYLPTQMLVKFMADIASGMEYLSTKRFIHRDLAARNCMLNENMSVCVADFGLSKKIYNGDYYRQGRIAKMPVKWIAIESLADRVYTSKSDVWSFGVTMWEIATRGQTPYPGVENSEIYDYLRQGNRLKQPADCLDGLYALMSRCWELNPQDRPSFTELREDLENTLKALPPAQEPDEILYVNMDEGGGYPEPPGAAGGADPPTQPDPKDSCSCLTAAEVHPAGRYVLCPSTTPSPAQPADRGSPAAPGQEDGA
Method: (§1) The Aurora and other kinase assays described here were performed on two Caliper Life Sciences systems, the LC3000 and the Desktop Profiler. These provide data on enzyme activity via measurement of the relative amounts of phosphorylated or unphosphorylated fluorescently labelled substrate peptide at the end of an enzymatic reaction. These different states of peptide are resolved by applying a potential difference across the sample. The presence of a charged phosphate group on the product (as opposed to the substrate) causes a different peptide mobility between the two peptides. This is visualized by excitation of a fluorescent label on the substrate and product peptides and represented as peaks within the analysis software.
(§2) The Desktop Profiler utilizes the same principal as the LC 3000 for calculating percentage conversion of a substrate to product. Caliper Life Sciences provided proprietary flash frozen pre-made 384 well plates containing selected kinases. Each column in the 384 well plate contained a particular selected kinase. A second plate, the ‘substrate plate’ contained a mix of fluorescently labeled peptide substrate and ATP. These were arranged in columns so that transfer for substrate plate to enzyme plate provided the correct enzyme with the correct substrate/ATP concentration.
(§3) Compounds were added to a thawed enzyme plate in the desired format, in single concentrations. Reactions were initiated by transfer of the ubstrate/ATP mix from the substrate plate. The enzyme plate was incubated for 90 mins at 25 °C. The reaction was stopped by addition of […] of Stop Buffer (100 mM HEPES pH 7.5, 0.015% Brij-35, 10 mM EDTA (Sigma, E7889)).
(§4) Plates were read in a manner identical to that of the LC3000, and the ratio between substrate and product peaks provided the activity of the enzyme in that well. This was best represented by a plate heat map which colors each well by percent inhibition as compared to positive and negative controls (no inhibitors and no ATP respectively).

JAK2(h) = target: T2, JAK2(h) (Homo sapiens, UniProt O60674)
T2 construct: purchased Caliper Life Sciences
Method: as §1, §2, §3, §4

Abl(T315I)(h) = target: T3, Abl(T315I)(h) (Homo sapiens, UniProt P00519, T315I)
T3 construct: purchased Caliper Life Sciences
Method: as §1, §2, §3, §4

ROCK-II(h) = target: T4, ROCK-II(h) (Homo sapiens, UniProt O75116)
T4 construct: purchased Caliper Life Sciences
Method: as §1, §2, §3, §4

Flt3(D835Y)(h) = target: T5, Flt3(D835Y)(h) (Homo sapiens, UniProt P36888, D835Y)
T5 construct: purchased Caliper Life Sciences
T5 sequence (P36888 27-993 D835Y): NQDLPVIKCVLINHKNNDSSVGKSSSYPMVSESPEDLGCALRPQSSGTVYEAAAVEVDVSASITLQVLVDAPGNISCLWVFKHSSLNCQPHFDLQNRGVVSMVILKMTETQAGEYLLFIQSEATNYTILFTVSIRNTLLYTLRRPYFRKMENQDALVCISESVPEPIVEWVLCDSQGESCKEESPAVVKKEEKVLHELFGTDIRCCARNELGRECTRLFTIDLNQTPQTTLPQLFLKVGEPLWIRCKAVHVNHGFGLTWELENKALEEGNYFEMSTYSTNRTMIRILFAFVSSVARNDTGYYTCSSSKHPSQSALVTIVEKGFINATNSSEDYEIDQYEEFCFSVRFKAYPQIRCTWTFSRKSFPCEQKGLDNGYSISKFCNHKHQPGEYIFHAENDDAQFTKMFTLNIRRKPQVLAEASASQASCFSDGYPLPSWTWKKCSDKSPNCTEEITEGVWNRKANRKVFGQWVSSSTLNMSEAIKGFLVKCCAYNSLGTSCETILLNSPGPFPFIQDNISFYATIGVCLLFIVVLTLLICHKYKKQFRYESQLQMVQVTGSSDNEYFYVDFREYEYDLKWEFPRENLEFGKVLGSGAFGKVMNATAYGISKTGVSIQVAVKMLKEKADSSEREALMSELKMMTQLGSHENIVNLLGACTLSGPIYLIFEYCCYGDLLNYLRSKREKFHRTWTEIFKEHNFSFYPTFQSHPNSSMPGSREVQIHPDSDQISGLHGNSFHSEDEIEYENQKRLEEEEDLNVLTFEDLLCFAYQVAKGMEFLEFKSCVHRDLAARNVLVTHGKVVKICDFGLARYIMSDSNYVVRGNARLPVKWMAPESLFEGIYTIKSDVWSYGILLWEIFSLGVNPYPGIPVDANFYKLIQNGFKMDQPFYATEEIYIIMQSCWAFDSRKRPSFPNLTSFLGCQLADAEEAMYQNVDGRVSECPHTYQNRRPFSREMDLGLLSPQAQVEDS
Method: as §1, §2, §3, §4

PDGFRβ(h) = target: T6, PDGFRβ(h) (Homo sapiens, UniProt P09619)
T6 construct: purchased Caliper Life Sciences
Method: as §1, §2, §3, §4

Ret(h) = target: T7, Ret(h) (Homo sapiens, UniProt P07949)
T7 construct: purchased Caliper Life Sciences
Method: as §1, §2, §3, §4

FGFR4(h) = target: T8, FGFR4(h) (Homo sapiens, UniProt P22455)
T8 construct: purchased Caliper Life Sciences
Method: as §1, §2, §3, §4

Abl(h) = target: T9, Abl(h) (Homo sapiens, UniProt P00519)
T9 construct: purchased Caliper Life Sciences
Method: as §1, §2, §3, §4

T8 sequence (P22455 22-802): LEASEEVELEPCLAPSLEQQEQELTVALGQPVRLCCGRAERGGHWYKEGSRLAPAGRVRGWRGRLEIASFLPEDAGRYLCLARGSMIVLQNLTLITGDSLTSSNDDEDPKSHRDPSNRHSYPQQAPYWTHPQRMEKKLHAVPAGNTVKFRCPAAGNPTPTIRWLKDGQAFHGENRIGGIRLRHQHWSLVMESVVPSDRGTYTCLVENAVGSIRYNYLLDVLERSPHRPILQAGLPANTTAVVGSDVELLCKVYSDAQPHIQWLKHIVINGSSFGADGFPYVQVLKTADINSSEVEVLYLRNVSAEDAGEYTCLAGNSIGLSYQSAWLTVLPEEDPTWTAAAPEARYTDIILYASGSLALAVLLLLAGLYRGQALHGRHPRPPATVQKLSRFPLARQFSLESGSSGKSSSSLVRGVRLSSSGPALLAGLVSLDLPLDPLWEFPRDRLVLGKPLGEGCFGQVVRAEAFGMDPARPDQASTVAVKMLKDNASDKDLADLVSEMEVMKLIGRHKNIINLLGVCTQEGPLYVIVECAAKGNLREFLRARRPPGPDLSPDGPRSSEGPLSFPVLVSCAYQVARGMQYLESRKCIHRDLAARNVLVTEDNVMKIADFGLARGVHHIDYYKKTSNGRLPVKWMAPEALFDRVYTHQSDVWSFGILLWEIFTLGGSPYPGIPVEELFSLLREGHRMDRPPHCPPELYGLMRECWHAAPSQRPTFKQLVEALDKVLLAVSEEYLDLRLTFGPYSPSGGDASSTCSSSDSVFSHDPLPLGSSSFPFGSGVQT
T6 sequence (P09619 33-1106): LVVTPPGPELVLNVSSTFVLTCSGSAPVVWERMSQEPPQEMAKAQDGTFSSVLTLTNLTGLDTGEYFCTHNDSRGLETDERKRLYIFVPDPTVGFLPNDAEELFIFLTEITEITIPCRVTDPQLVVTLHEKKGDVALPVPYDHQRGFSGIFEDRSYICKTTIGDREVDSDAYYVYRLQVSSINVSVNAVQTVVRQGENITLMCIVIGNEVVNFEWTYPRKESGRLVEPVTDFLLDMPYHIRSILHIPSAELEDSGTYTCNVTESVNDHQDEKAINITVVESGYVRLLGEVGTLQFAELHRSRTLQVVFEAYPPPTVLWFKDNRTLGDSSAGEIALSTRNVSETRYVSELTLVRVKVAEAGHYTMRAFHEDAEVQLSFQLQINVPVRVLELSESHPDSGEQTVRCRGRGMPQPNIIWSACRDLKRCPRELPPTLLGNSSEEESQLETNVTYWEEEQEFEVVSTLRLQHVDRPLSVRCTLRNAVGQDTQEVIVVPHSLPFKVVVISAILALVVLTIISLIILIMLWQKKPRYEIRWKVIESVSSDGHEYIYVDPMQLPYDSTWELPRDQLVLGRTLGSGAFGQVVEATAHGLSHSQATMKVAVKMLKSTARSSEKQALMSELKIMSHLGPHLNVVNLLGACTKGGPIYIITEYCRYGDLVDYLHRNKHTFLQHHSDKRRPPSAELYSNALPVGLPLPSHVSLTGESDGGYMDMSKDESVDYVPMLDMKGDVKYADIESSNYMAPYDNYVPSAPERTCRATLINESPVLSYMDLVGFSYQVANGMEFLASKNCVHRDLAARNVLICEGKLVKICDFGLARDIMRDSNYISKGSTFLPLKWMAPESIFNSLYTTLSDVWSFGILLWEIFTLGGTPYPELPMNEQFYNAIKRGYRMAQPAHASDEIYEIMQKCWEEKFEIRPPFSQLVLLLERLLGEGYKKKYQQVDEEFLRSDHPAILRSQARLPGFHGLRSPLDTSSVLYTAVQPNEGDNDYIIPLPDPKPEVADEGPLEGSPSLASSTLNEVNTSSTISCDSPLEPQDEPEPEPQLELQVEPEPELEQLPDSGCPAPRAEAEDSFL
T2 sequence (O60674 whole entry): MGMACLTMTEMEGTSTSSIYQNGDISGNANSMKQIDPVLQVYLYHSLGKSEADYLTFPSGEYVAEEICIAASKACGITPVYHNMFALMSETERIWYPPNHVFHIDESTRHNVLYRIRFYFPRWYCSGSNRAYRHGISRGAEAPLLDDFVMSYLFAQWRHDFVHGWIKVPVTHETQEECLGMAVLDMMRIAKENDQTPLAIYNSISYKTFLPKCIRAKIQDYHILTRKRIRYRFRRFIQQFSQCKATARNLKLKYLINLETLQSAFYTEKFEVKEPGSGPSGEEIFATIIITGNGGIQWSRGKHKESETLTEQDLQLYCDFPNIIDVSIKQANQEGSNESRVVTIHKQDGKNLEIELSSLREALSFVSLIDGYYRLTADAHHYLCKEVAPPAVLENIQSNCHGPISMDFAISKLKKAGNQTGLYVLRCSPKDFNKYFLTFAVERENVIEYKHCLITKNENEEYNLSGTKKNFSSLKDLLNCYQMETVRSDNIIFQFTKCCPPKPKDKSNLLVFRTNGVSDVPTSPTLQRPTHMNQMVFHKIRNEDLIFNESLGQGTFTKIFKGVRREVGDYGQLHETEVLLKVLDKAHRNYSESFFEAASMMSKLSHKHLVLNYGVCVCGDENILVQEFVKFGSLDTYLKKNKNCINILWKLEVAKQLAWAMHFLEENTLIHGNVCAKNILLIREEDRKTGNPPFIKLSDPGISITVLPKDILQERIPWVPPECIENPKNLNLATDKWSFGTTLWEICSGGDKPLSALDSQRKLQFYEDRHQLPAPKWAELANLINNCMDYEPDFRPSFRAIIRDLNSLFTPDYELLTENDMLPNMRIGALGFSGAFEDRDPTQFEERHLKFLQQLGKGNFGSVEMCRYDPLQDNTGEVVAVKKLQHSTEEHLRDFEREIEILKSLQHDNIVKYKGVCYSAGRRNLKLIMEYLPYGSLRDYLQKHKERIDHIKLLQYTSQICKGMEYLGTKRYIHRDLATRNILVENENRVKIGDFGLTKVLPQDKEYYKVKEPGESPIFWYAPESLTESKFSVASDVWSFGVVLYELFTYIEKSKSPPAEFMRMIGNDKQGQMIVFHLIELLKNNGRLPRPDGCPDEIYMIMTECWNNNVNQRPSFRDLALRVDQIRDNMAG
T4 sequence (O75116 whole entry): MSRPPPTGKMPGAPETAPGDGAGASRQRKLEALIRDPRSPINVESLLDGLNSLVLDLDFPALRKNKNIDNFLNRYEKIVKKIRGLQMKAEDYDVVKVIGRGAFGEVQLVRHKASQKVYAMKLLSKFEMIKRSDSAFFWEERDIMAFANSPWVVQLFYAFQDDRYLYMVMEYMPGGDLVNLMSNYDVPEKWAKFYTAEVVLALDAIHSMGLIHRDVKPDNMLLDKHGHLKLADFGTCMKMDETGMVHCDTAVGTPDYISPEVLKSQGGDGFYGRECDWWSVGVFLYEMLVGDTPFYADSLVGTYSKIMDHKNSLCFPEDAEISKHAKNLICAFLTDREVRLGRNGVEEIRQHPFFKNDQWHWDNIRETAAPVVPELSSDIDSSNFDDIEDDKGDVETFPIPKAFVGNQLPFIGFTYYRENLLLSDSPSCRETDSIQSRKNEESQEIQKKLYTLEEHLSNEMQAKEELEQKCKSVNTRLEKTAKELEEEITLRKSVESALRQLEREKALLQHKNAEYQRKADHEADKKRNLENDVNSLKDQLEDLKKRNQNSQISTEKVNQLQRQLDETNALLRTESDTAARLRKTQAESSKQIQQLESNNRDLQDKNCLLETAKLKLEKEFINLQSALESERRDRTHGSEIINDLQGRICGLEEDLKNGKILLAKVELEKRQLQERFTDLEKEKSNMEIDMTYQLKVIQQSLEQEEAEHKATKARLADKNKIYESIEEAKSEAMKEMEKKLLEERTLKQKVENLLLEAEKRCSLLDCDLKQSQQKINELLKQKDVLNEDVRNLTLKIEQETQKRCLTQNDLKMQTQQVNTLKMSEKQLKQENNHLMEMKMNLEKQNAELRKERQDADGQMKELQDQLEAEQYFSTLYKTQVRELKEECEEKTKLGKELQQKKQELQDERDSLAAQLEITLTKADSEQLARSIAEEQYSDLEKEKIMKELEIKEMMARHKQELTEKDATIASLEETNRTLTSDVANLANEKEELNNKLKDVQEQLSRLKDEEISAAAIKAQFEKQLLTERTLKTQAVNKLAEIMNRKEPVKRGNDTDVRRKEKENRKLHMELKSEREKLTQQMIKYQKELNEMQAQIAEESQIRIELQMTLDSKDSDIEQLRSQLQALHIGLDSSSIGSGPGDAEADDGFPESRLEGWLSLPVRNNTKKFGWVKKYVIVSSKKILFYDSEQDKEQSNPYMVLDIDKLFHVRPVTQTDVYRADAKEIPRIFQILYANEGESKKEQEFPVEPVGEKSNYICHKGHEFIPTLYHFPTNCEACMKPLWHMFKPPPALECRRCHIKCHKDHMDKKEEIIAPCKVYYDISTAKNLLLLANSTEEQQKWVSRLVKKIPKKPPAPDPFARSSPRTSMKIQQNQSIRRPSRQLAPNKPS

Row | Compound | % inhibition Axl(h) (Axl(h); 1 μM) [%] | % inhibition JAK2(h) (JAK2(h); 1 μM) [%] | % inhibition Abl(T315I)(h) (Abl(T315I)(h); 1 μM) [%] | % inhibition ROCK-II(h) (ROCK-II(h); 1 μM) [%] | % inhibition Flt3(D835Y)(h) (Flt3(D835Y)(h); 1 μM) [%] | % kinase activity remaining (PDGFRβ(h); 1 μM) [%] | % inhibition Ret(h) (Ret(h); 1 μM) [%] | % inhibition FGFR4(h) (FGFR4(h); 1 μM) [%] | inhibition at 1 µM (Abl(h)) [%] | % inhibition Axl(h) (Axl(h); 10 μM) [%] | % inhibition JAK2(h) (JAK2(h); 10 μM) [%] | % inhibition Abl(T315I)(h) (Abl(T315I)(h); 10 μM) [%] | % inhibition ROCK-II(h) (ROCK-II(h); 10 μM) [%] | % inhibition Flt3(D835Y)(h) (Flt3(D835Y)(h); 10 μM) [%] | % kinase activity remaining (PDGFRβ(h); 10 μM) [%] | % inhibition Ret(h) (Ret(h); 10 μM) [%] | % inhibition FGFR4(h) (FGFR4(h); 10 μM) [%] | inhibition at 10 µM (Abl(h); 10 μM) [%]
1 | CC[C@@H]1C[C@@H]2CCCOc3cccc(c3)Nc3ncc(F)c(n3)N[C@H]2[C@H]1C(N)=O (single isomer, unassigned) [Example 5] | 96 | 94 | 103 | 105 | 63 | 117 | 52 | 94 | 105 | – | – | – | – | – | – | – | – | –
2 | O=C(O)[C@H]1[C@H]2C[C@H]3[C@H]1Nc1nc(ncc1F)Nc1cccc(c1)OCCS[C@@H]3C2 [Example 21] | – | – | – | – | – | – | – | – | – | 66 | 48 | 38 | 94 | 2 | 104 | 35 | 81 | 44
3 | NC(=O)[C@H]1[C@H]2C[C@H]3[C@H]1Nc1nc(ncc1F)Nc1cccc(c1)C(=O)CS[C@@H]3C2 [Example 11] | 105 | 121 | 95 | 102 | 110 | 93 | 56 | 100 | 92 | – | – | – | – | – | – | – | – | –
4 | NC(=O)[C@H]1[C@H]2C[C@H]3[C@H]1Nc1nc(ncc1F)Nc1cccc(c1)CSS[C@@H]3C2 [Example 10] | 10 | 95 | 47 | 90 | 7 | 149 | 7 | 128 | 101 | – | – | – | – | – | – | – | – | –
5 | C=C[C@@H]1C[C@@H]2/C=C/COc3cccc(c3)Nc3ncc(F)c(n3)N[C@H]2[C@H]1C(N)=O (single isomer, unassigned) [Example 3] | 107 | 89 | 92 | 80 | 77 | 110 | 78 | 122 | 105 | – | – | – | – | – | – | – | – | –
6 | NC(=O)[C@H]1[C@H]2C[C@H]3[C@H]1Nc1nc(ncc1F)Nc1cccc(c1)OCCS[C@@H]3C2 [Example 20] | 40 | 46 | 34 | 99 | 8 | 110 | 11 | 102 | 79 | – | – | – | – | – | – | – | – | –
7 | CC[C@@H]1C[C@@H]2/C=C\COc3cccc(c3)Nc3ncc(F)c(n3)N[C@H]2[C@H]1C(N)=O (single isomer, unassigned) [Example 6] | 78 | 108 | 89 | 97 | 33 | 107 | 12 | 96 | 99 | – | – | – | – | – | – | – | – | –

More lines, now with the values ahead:

Row | % inhibition Axl(h) (Axl(h); 1 μM) [%] | % inhibition JAK2(h) (JAK2(h); 1 μM) [%] | % inhibition Abl(T315I)(h) (Abl(T315I)(h); 1 μM) [%] | % inhibition ROCK-II(h) (ROCK-II(h); 1 μM) [%] | % inhibition Flt3(D835Y)(h) (Flt3(D835Y)(h); 1 μM) [%] | % kinase activity remaining (PDGFRβ(h); 1 μM) [%] | % inhibition Ret(h) (Ret(h); 1 μM) [%] | % inhibition FGFR4(h) (FGFR4(h); 1 μM) [%] | inhibition at 1 µM (Abl(h)) [%] | % inhibition Axl(h) (Axl(h); 10 μM) [%] | % inhibition JAK2(h) (JAK2(h); 10 μM) [%] | % inhibition Abl(T315I)(h) (Abl(T315I)(h); 10 μM) [%] | % inhibition ROCK-II(h) (ROCK-II(h); 10 μM) [%] | % inhibition Flt3(D835Y)(h) (Flt3(D835Y)(h); 10 μM) [%] | % kinase activity remaining (PDGFRβ(h); 10 μM) [%] | % inhibition Ret(h) (Ret(h); 10 μM) [%] | % inhibition FGFR4(h) (FGFR4(h); 10 μM) [%] | inhibition at 10 µM (Abl(h); 10 μM) [%] | Compound
8 | 48 | 60 | 0 | 120 | 3 | 95 | 1 | 50 | -4 | – | – | – | – | – | – | – | – | – | CN1CCN(c2ccc3cc2NC(=O)CS[C@@H]2C[C@@H]4C[C@H]2[C@@H](Nc2nc(ncc2F)N3)[C@H]4C(N)=O)CC1 [Example 24]
9 | 55 | 16 | 2 | 94 | 57 | 58 | 50 | 53 | -1 | – | – | – | – | – | – | – | – | – | N#Cc1ccc2cc1NC(=O)CS[C@@H]1C[C@@H]3C[C@H]1[C@@H](Nc1nc(ncc1F)N2)[C@H]3C(N)=O [Example 26]
10 | 40 | 111 | 13 | 92 | 3 | 112 | 4 | 87 | -4 | – | – | – | – | – | – | – | – | – | CN1CCN(c2ccc3cc2OCCS[C@@H]2C[C@@H]4C[C@H]2[C@@H](Nc2nc(ncc2F)N3)[C@H]4C(N)=O)CC1 [Example 22]
11 | 63 | 62 | 1 | 110 | 12 | 115 | 4 | 96 | 3 | – | – | – | – | – | – | – | – | – | NC(=O)[C@H]1[C@H]2C[C@H]3[C@H]1Nc1nc(ncc1F)Nc1cccc(c1)NC(=O)CS[C@@H]3C2 [Example 27]
